Patent US12031986B2, “Polypeptide for targeting recognition of immune cells and application thereof” (KEYANGLE LIFE TECHNOLOGY CO., LTD., priority 2019, dated 2024)
Entries after “also recorded” stand apart in the source; their conditions may differ. No end group written: not given here. code X = not defined here

How the values were obtained:
[1] = system: mouse peritoneal macrophages; test: In vivo fluorescent labeling of macrophages in a mouse abdominal cavity; details: probe injected into abdominal cavity, cells extracted after 4 hours, fluorescence microscope
Description: Dilute 300 μL of 50 μM AK9 fluorescent probe solution with serum-free DMEM incomplete medium to obtain 1 mL of solution, then inject into the abdominal cavities of 5-8 week old Kunming mice. After 4 hours, inject 5 mL of 1×PBS, and massage. After 10 minutes, sacrifice the mice by cervical vertebra dislocation. Cut the abdominal cavity skin of the mice, pierce the abdominal wall muscle by syringe, and extract the fluid in the abdominal cavity of the mice. Centrifuge the extracted peritoneal fluid at 1000 rpm for 5 min, wash twice with 1×PBS. Double-stain an appropriate number of cells with Alexa Fluor 488 anti-mouse F4/80 antibody (Biolegend). Add the stained cells to a 96-well plate and stain with a nuclear dye Nucblue (Invitrogen). Observe under EVOS FL Auto fluorescence microscope (Life Technologies, 20×, light source 50%, exposure 200 ms, gain 10) after the suspended cells were settled down at the bottom of the plate.
Table 1 lists probes, which contain the polypeptide fragments from the C-terminal fragments of Triokinases/FMN cyclases of different species and were prepared by a similar process as described in Examples 1 and 2, and in vivo imaging results of mouse peritoneal macrophages using these probes.

[2] = system: mouse macrophage cell line RAW264.7; test: In vitro fluorescence labeled staining of a mouse macrophage cell line; assay type: cell-based; details: 10 μM, incubated 1 h
Description: Culture the mouse macrophage cell line RAW264.7 in a 96-well plate, wash the wells once with 1×PBS buffer or a serum-free DMEM incomplete medium, remove the washing liquid, add EK24 solution of 10 μM which had been diluted with 100 μL of serum-free DMEM incomplete medium, and incubate in a cell culture incubator for 1 h. After that, wash the wells twice with 1× PBS buffer or the serum-free DMEM incomplete medium. Then, add DMEM complete medium containing 10% FBS and 1% streptomycin-penicillin, and double-stain the cells using nuclear dye Nucblue and observe under EVOS® FL Auto fluorescence microscope (Life Technologies, light source 10%, exposure 200 ms, gain 5).

[3] = system: cultured macrophages isolated from mouse peritoneal cavity; test: In vitro fluorescent labeling of cultured macrophages isolated from mouse peritoneal cavity; assay type: cell-based; details: 10 μM EK24 premixed with F4/80 antibody, 1 h at 37 °C
Description: Inject 5 mL of serum-free DMEM incomplete medium into the abdominal cavity of 5 to 8 weeks old mice, massage the abdominal cavity gently for 10 min, and sacrifice the mice by cervical vertebra dislocation. Extract the fluid from the abdominal cavity gently with a syringe, inject into a 5 mL centrifuge tube and centrifuge at 1000 rpm for 5 min, remove the supernatant, and resuspend the collected ex-vivo cells in DMEM/F12 medium containing 10% FBS, then add into a 96-well plate for culture. Generally, if cells are taken intraperitoneally for in vitro culture, macrophages would tend to adhere to the bottom of the well, and other cells would be washed off. The cells were cultured for more than 2 days until the cells attached to the bottom firmly. At this time, the cells remaining in the wells were basically macrophages. Select two wells, one as a control and the other as an experimental well. The cells of the control were nuclear stained with Nucblue. The experimental well was added with a premix of AlexaFluor®488 anti-mouse F4/80 antibody (Biolegend) and EK24 fluorescent probe, and then incubated for 1 h at 37° ° C. The premix contained 10 μM of EK24 solution and 2 μL of Alexa Fluor®488 anti-mouse F4/80 antibody diluted with 100 μL of serum-free DMEM incomplete medium. […] The cells were observed under a fluorescence microscope (20× objective lens, light source 10%, exposure 200 ms, gain 5).

[4] = system: primary macrophages from rat peritoneal cavity; test: In vitro fluorescent labeling of primary macrophages from rat peritoneal cavity; assay type: cell-based; details: SD rats, cells cultured more than 2 days
Description: With the same process as in Example 9, extract cells from the abdominal cavity of 5 to 8 weeks old SD rats using 20 mL serum-free DMEM incomplete medium and culture the cells in a 96-well plate. After culturing for more than 2 days until the cells attached to the bottom firmly, a well was selected and added with EK24 fluorescent probe for incubation. Then the cells were observed under a fluorescence microscope (20×, light source 10%, exposure 200 ms, gain 5).

[5] = system: monocyte precursors from New Zealand White Rabbit bone marrow mesenchyme; test: In vitro fluorescent labeling of primary monocyte precursors of New Zealand White Rabbit; assay type: cell-based; details: cultured
Source text: With a similar process to Example 11, bone marrow monocyte precursors of New Zealand White Rabbit were taken and cultured, then labeled by using EK24 fluorescent probe and Nucblue. Then the cells were observed under a fluorescence microscope (20×, light source 10%, exposure 200 ms, gain 5).

[6] = system: cultured peritoneal macrophages and other cells released from enzyme-digested mesenterium; test: Selective labeling of cultured peritoneal macrophages among other cells released from enzyme-digested mesenterium; assay type: cell-based, mouse; details: peritoneal cells and mesenteries trypsin-digested, cultured 3 days
Description: Take 5 to 8-week-old Kunming mice, inject intraperitoneally with 5 mL of serum-free DMEM incomplete medium. After 1 hour, sacrifice the mice by cervical vertebra dislocation. Make an incision on the skin of abdominal cavity, pierce the abdominal wall muscle using the syringe, and extract the fluid in the abdominal cavity of the mice. Wash twice with 1×PBS, collect peritoneal cells by centrifugation. Also take the mesenteries of the Kunming mice and purge twice with 1×PBS in centrifuge tubes. Incubate the obtained peritoneal cells and mesenteries in 0.25% trypsin solution and digest for 30 minutes. Enrich the cells by centrifugation, and then culture for 3 days in a 96-well plate using F12/DMEM culture solution containing 10% FBS and 1% streptomycin-penicillin. Referring to Example 5, label with the EK24 fluorescent probe and Nucblue. Then the cells were observed under a fluorescence microscope (20×, light source 10%, exposure 200 ms, gain 5).

[7] = system: macrophages on mouse abdominal wall; test: In vivo fluorescent labeling of macrophages on mouse abdominal wall; details: injected with FITC anti-mouse CD68 antibody; abdominal wall muscle removed
Description: Referring to Example 3, using the same drug injection process, inject EK24, and FITC anti-mouse CD68 antibody (Biolegend) which was diluted with PBS from 2 μL to 500 μL. Remove mouse abdominal wall muscle for Nucblue double-staining and then observing under a fluorescence microscope (20×, light source 50%, exposure 200 ms, gain 5).

[8] = system: mouse alveolar macrophages; test: In vivo fluorescent labeling of mouse pulmonary macrophages after spraying through the trachea; details: sprayed into the lungs through the trachea; whole lungs observed
Source text: In yet another aspect of the present disclosure, it provides a method for convenient, oral and non-invasive in situ imaging or targeted drug administration for pulmonary immune cells. After spraying into the trachea of a mouse, the polypeptide or probe of the present disclosure can be diffused along the trachea in the living body, automatically target and aggregate in alveolar macrophages, and thus allow real-time and in situ imaging or targeted drug delivery to pulmonary and alveolar macrophages. The imaging may be maintained for more than 24 hours. The experiments of the present disclosure confirm that the probe described above can diffuse to lungs through mouth inhalation, and recognize macrophages therein, which is consistent with CD11c antibody recognizing alveolar macrophages.
Spray 100 μL of 50 μM EK24-drug into the lungs of 4- to 8-week-old mice through the trachea thereof, and after 18 hours, dilute 5 μL of Alexa Fluor®488 anti-mouse CD11c antibody (Biolegend) to 100 μL and then spray into the lung for 1.5 h. Dissect the mice, and take the whole lungs for observing under a fluorescence microscope (20×, light source 50%, exposure 200 ms, gain 5).

[9] = system: mouse peritoneal macrophages; test: In vitro fluorescent labeling of mouse peritoneal macrophages at different incubation times; assay type: cell-based
Description: Referring to Example 9, using the same treatment process, the macrophages from mouse abdominal cavity were obtained. After culturing for 6 days, the cultured peritoneal cells were labeled with KS24 fluorescent probes for different incubation times. Then the cells were observed under a fluorescence microscope (20×, light source 20%, exposure 200 ms, gain 5).
Nucblue (blue fluorescence) was further used for nuclear staining. In each of FIGS. 14A, 14B, 14C, and 14D, i) is an image labeled with the KS24 fluorescent probe (shown in red fluorescence in the original fluorescence color image), and ii) is an image obtained by nuclear staining with Nucblue (shown in blue fluorescence in the original fluorescence color image), and iii) is a merged image of i) and ii).

EQPDPGAVAAAAILRAILEVLQS-Y (EQPDPGAVAAAAILRAILEVLQSY; also: reporter type not given here; listed as Homo sapiens) [EK24, Y = reporter or cysteine/lysine + reporter]
in vivo labeling / recognition of mouse peritoneal macrophages by the fluorescent probe [1]: can effectively recognize macrophages in vivo; also recorded: can be labeled | fluorescent labeling of RAW264.7 [2]: can be labeled | co-localization of probe label and F4/80 antibody label [3]: co-localized on the same cells | labeling of in vitro cultured primary macrophages from rat peritoneal cavity [4]: can effectively label | labeling of New Zealand White Rabbit bone marrow monocyte precursors [5]: capable of labeling | staining of macrophages in mixed culture [6]: only stains macrophages | staining of non-macrophages in mixed culture [6]: not stain non-macrophages | labeling of macrophages on mouse abdominal wall [7]: can be labeled | labeling of other cells of mouse abdominal wall [7]: cannot be labeled | recognition of mouse alveolar / pulmonary macrophages [8]: recognize the same cells in mouse alveoli

X-DQPDPGAVAAAAILRTILEVLQSQGV ({code X}-DQPDPGAVAAAAILRTILEVLQSQGV; reading uncertain; also: reporter type not given here, printed as X-DQPDPGAVAAAAILRTILEVLQSQGV; listed as Canis lupus) [d-KV27, X = reporter or cysteine/lysine + reporter]
in vivo labeling / recognition of mouse peritoneal macrophages by the fluorescent probe [1]: can effectively recognize macrophages in vivo; also recorded: can be labeled

X-EQPDPGAVAAAAILRAILEVLQS ({code X}-EQPDPGAVAAAAILRAILEVLQS; reading uncertain; also: reporter type not given here, printed as X-EQPDPGAVAAAAILRAILEVLQS; listed as Homo sapiens) [KS24, X = reporter or cysteine/lysine + reporter at N-terminal]
in vivo labeling / recognition of mouse peritoneal macrophages by the fluorescent probe [1]: can effectively recognize macrophages in vivo; also recorded: can be labeled | fluorescence detection with microscope ([9]; incubating only for 10 min): can be even detected | labeled fluorescence of the cells versus incubation time ([9]; incubation 10, 20, 40 and 80 min, cells cultured 6 days): gradually becomes stronger with the incubation time

X-EQPDPSAVAAAAILRAILEVLQG (not fully specified (N-terminus); printed as X-EQPDPSAVAAAAILRAILEVLQG; also: N-terminal reporter, not given here) [KESG24, X = reporter or cysteine/lysine + reporter]
in vivo labeling / recognition of mouse peritoneal macrophages by the fluorescent probe [1]: can be labeled

X-TKNMEAGAGRASYISSARLEQPDPGAVAAAAILRAILEVLQS (not fully specified (N-terminus); listed as Homo sapiens) [TS42]
in vivo labeling / recognition of mouse peritoneal macrophages by the fluorescent probe [1]: can effectively recognize macrophages in vivo; also recorded: can be labeled
